Data as given in patent US20030103993A1, “HLA-DR2 binding peptides” (Corixa Corporation, priority 2000, published 2003).

How the values were obtained:
[1] = system: SS8T cloned human T cells; assay: T cell receptor occupancy assay: γ-IFN production by SS8T T cell clone (ELISA); type: cell-based; conditions: SS8T cells restricted to HLA-DR2 and MBP 84-102; 48 h incubation; text cites FIG. 2
Protocol: The Herpes saimiri virus (HSV) transformed SS8T human T cell clone was a generous gift from Dr. H. Wekerle. The clone is restricted to DR2 (DRB5*0101) and MBP (84-102) peptide. It was cultured in RPMI 1640 medium supplemented with 2 mM L-glutamine, 100 units/ml penicillin, 100 μg/ml streptomycin, 10% fetal bovine serum and 50 units/ml human recombinant IL-2 (rIL-2) at 37° C. (culture medium). Every alternate day, cells were transferred to fresh culture medium. Various peptides at different concentrations were incubated with the cells in a microtiter tissue culture plate at a density of 20,000 cells/200 μl/well in the absence of rIL-2. After 48 h of incubation at 37° C., the culture fluids were collected from each well to test for γ-IFN and TNF-β cytokines. The detection of γ-IFN was by Ab ELISA as described recently (Arimilli et a.l, J. Immunol. Methods 212:49-59 (1998)). For the detection of TNF-β, Nunc Maxisorb 96-well plates were coated with anti-human TNF-β mAb at a concentration of 0.5 μg/well and incubated at 4° C. overnight. The wells were blocked with 0.1% bovine serum albumin, and samples were incubated at RT for 2 h. A standard curve was generated by using recombinant human TNF-β with a dilution range of 500 to 0.01 ng/ml. […] The reaction was stopped by 2N sulfuric acid at 5 mm, and the absorbance was measured at 450 nm.

SS8T cells = assay: T cell metabolic acidification rate (Cytosensor microphysiometer); type: cell-based, human
From the text: Freshly cultured SS8T cells were immobilized into microphysiometer cell capsules as described earlier (Arimilli et al., J. Immunol. Methods 212:49-59 (1998)) using low-melt agarose (Molecular Devices Corp., Sunnyvale, Calif.). Briefly, cells were rested from IL-2 pulsing for 2 days. Cells were counted and suspended in a serum-free loading medium (low-buffering RPMI 1640 containing 10% fatty acid free, endotoxin-free BSA). Cells were collected by centrifugation and resuspended at a concentration of 3×10^5 T cells per 7.5 μl of loading medium. Low-melt agarose (Molecular Devices Corp.), melted and stored at 37° C., was added to the suspended cells to a concentration of 2.5 μl per 7.5 μl. Ten μl of the agarose/cell mixture was immediately spotted into the center of the cell capsule cups (Molecular Devices Corp.) held in a 12 well culture plate. After 5 minutes, 2 ml of loading medium was placed in the capsule cup over the solidified agarose and a membrane insert was placed over the cells. The assembled cell capsule was loaded in the Cytosensor chamber at 37° C. and perfused at 50 μl per min with low-buffering RPMI 1640 medium containing […] but no added HEPES or bicarbonate. […]

HLA-DR2 = molecular target: T1, HLA-DR2 (Homo sapiens, UniProt P01903+Q30154); assay: Peptide/DR2 competitive binding assay (biotinylated MBP 83-102Y83 vs test peptide, ELISA)
T1 construct: DR2 molecules were purified from the human EBV-B cell line; endogenous in cells; host or cells: human EBV-B cell line
Protocol: DR2 molecules were purified from the human EBV-B cell line. […] Mab L243 (IgG2a) affinity chromatography. A 10 μM solution of affinity purified DR2 was biotinylated with 200 μM Biotin-XX-NHS in 0.25 NaHCO3/0.2% NP-40 for 1 hr. at room temperature.
The ability of peptides to bind HLA-DR2 was estimated by competitive peptide binding assay. Purified HLA-DR2 (2 μg/ml) was incubated with 50-fold excess Bt-MBP 83-102Y83 peptide in the presence or absence of test peptides. The ratio of Et-MEP 831-2Y83 peptide to the test peptide was 1:1. After incubation at 37° C. for 48 hrs, the complex was added to the wells coated with anti-DR antibody and incubated for 2 hours at 37° C. The wells were then washed and alkaline phosphatase-linked streptavidin was added and the reaction incubated for 1 hour at 37° C. The excess streptavidin was washed and the ELISA color was developed by using p-nitrophenol phosphate in 0.1M diethanolamine as substrate. The test peptide was considered to be the stronger binding peptide if the O.D was less than the O.D of Bt 83-102Y83 peptide in the absence of the test peptide.

Substance | γ-IFN production by SS8T cells exposed to peptide [1] | stimulation of SS8T cells (extracellular acidification rate) (SS8T cells; SS8T cells immobilized in agarose, exposed to peptide, FIG. 3) | inhibition of the binding of biotinylated MBP 83-102 to DR2 (HLA-DR2; purified DR2, 50-fold molar excess biotinylated MBP 83-102Y83, increasing concentrations of test peptide, FIG. 1) | affinity of binding to DR2 relative to MBP peptide (HLA-DR2; synthesized peptide, compared with MBP 84-102 peptide) | activation of the MBP 83-102 specific T cells in the presence of increasing concentrations of test peptide (SS8T cells; competition with MBP peptide, increasing concentrations)
Ac-GFGYGGRASDYKSAHKGFKG (Ac-GFGYGGRASDYKSAHKGFKG-NH2) [MBP 124-143 peptide, myelin basic protein peptide 124-143, control] | did not show any increase in γ-IFN production |  |  |  | 
Ac-YDENPVVHEKMVTPRTPP (Ac-YDENPVVHEKMVTPRTPP-NH2) [MBP 83-102 peptide, myelin basic protein peptide 83-102 with Y at position 83] | specific increase in γ-IFN production | increased level of extracellular acidification rate within 10 minutes |  |  | 
GHIKSSISFMGM [peptide #1] |  |  | to the same extent as the unbiotinylated MBP 83-102 peptide | comparatively in the same range as that of the MBP 83-102 peptide | decreasing activation of the hybridomas in a competitive manner
